Results reported in patent US5932227A, “Percutaneously administrable base composition and drug composition prepared therefrom” (Hisamitsu Pharmaceutical Co., Inc., priority 1992, dated 1999).

Experiment: concentration in blood of tulobuterol upon administering to a rat, compared with oral administration
Type: in vivo
Conditions: oral 10 mg/kg

AUC (blood): 91000 ng·h/mL
bioavailability (blood): 5.37%
concentration in blood of tulobuterol (0.25 hr): 227.0
concentration in blood of tulobuterol (0.5 hr): 37.7
concentration in blood of tulobuterol (1 hr): 17.1
concentration in blood of tulobuterol (2 hr): 4.3
concentration in blood of tulobuterol (4 hr): 0.8
concentration in blood of tulobuterol (6 hr): 0 ng/mL
concentration in blood of tulobuterol (8 hr): 0 ng/mL
concentration in blood of tulobuterol (12 hr): 0 ng/mL
concentration in blood of tulobuterol (24 hr): 0 ng/mL
SMILES: CC(C)(C)NCC(O)c1ccccc1Cl (centres unmarked) [tulobuterol]
